Like-named read-outs stand apart in the source and are kept apart here.
What was measured:
HDM2 = molecular target: T1, HDM2 (Homo sapiens, UniProt Q00987); experiment: Fluorescence polarisation competitive HDM2 binding assay
T1 construct: Recombinant HDM2 (1.5 μg per well) in TBS-BSA buffer
In short: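 Recombinant HDM2 (1.5 μg/well) was preincubated 5 min at room temperature with serially diluted compound in 50 mM Tris pH 7.4, 150 mM NaCl, 0.1% BSA, 5% DMSO final. Fluorescein-labelled p53 peptide (0.2 μM) was then added for 45 min. Polarisation was read at 485/520 nm and IC50 derived from dose-response curves.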

H1299 = experiment: 72-h MTT cytotoxicity assay, H1299; format: cell-based; details: Homo sapiens
Method: (§1) The fluorescence polarisation competitive HDM2 binding assay described in Example 3 was used. Furthermore, the anti-proliferative potency of the compounds against three human tumour cell lines with different genetic make-up was also determined. […] The cell lines used were as follows: AGS, gastric adenocarcinoma, wild-type p53; H1299, large cell lung carcinoma, p53 null, low HDM2; SJSA-1, primitive multipotential bone sarcoma, wild-type p53, overexpressed HDM2.
(§2) Representative bisarylsulfonamide compounds were tested on a panel of transformed and non-transformed human cell lines, using a standard 72-h MTT cytotoxicity assay [Haselsberger K et al, ibid].

[1] = tested on: AGS, H1299, MCF7 or SJSA1 cells; experiment: Cell morphology (cell rounding); format: cell-based, human; details: five times IC50
Description: Equal amounts of cell lysate were separated by SDS-PAGE and analysed by immunoblotting using the indicated antibodies. An estimation of the extent of cell rounding is indicated above each lane. The arrow indicates the position of a 85-kDa cleavage product of PARP, indicative of apoptosis. (B) The effect of compound 2 on the levels of the cell cycle proteins in AGS cells (wild-type 53). […] Equal amounts of cell lysate were separated by SDS-PAGE and analysed by immunoblotting using the indicated antibodies. An estimation of the extent of cell rounding is indicated above each lane. (C) The effect of negative control compound (refer Example 10), compound 2, cisplatin, and anisomycin on the levels of key proteins in MCF7 cells. […] Cisplatinum and anisomycin (a transcription inhibitor) treatments were with 50 μM or 37 μM, respectively. Cells were harvested at various time points; afterwards lysates were prepared and separated by SDS-PAGE and analysed by immunoblotting. The proteins detected are indicated. The extent of rounded or floating cells and the percentage viable cells were assessed. […] Equal amounts of cell lysate were separated by SDS-PAGE and analysed by immunoblotting using a range of antibodies. An estimation of the extent of cell rounding is indicated above each lane. […] SJSA1 cells were treated with 5 times [IC50] of compound 2 and collected at the indicated time points. Equal amounts of cell lysate were separated by SDS-PAGE and analysed by immunoblotting using a range of antibodies. An estimation of the extent of cell rounding is indicated above each lane.
Cells were treated with 5 times [IC50] of compound 2 and collected at various time points. The percentage of rounded cells was counted before cells were trypsinised and counted for cell viability using trypan blue.
Cells were lysed and equal amounts were analysed by SDS-polyacrylamide gel electrophoresis (SDS-PAGE) and immunoblotting. […] The reduction in E2F-1 levels correlated with reduction in E2F transcriptional activity as determined by an E2F-dependent luciferase reporter assay (refer Example 6).

[2] = tested on: E2F transcription factors; experiment: E2F reporter gene assay (A549-derived luciferase reporter cell line); format: cell-based; details: Homo sapiens; after 3-h treatment with test compounds; read-out: IC50 E2F reporter, Non-synchronised cells
Method: A similar system to the p53 reporter assay described above was used, with the exception that it was designed to be responsive to E2F transcription factors rather than p53. An A549-derived cell line stably transfected with an E2F response element and a luciferase reporter gene was created. The genetic expression cassette construct used was from Clontech (Mercury™ Cell Cycle Profiling System). Assays were carried out as described above.
Representative bisarylsulfonamides were tested in the E2F gene reporter assay described in Example 6.

SJSA-1 = experiment: 72-h MTT cytotoxicity assay, SJSA-1; format: cell-based; details: Homo sapiens
Method: as §1, §2

AGS = experiment: 72-h MTT cytotoxicity assay, AGS; format: cell-based; details: Homo sapiens
In short: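 Antiproliferative activity was measured on human tumour lines of differing genetic background: SJSA-1, a primitive multipotential bone sarcoma with wild-type p53 and overexpressed HDM2; H1299, a large cell lung carcinoma, p53 null with low HDM2; and AGS, a gastric adenocarcinoma carrying wild-type p53.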

p53 = p53 reporter gene assay (U2OS-derived luciferase reporter cell line); details: for Fold induction of luciferase activity: compared to basal luciferase activity, 16-h time point, at concentration of maximal induction; for Concentration (test compound concentration at which the p53 induction was maximal): p53 reporter, U2OS-derived cell line
Method: A dual assay assessing both cell viability and p53 response was employed. A U2OS-derived cell line stably transfected with a p53 response element and a luciferase reporter gene was created. […] After seeding of cells into 96-well tissue culture plates, treatment with test compounds, and incubation for the desired duration, the cell proliferation reagent WST-1 (Roche Molecular Biochemicals) was used to determine cell viability. The Bright-Glo™ Luciferase Assay System (Promega) was used to measure luciferase activity. The data from the cell viability assay was used to normalise data from the luciferase assay.

[3] = tested on: non-transformed human cell lines; experiment: 72-h MTT panel, average non-transformed; format: cell-based; details: average over non-transformed cell lines, read-out: Anti-proliferative activity, 72-h MTT IC50, Average non-transformed
Method: as §2
(§3) This differential selectivity further supports the notion that the bisarylsulfonamides modulate cellular HDM2 function. It is known that HDM2 amplification is particularly common in soft tissue sarcomas and osteosarcomas [Momand J et al, ibid; Bartel F, Meye A, Wurl P, Kappler M, Bache M, Lautenschlager C, Grunbaum U, Schmidt H, Taubert H; Int. J. Cancer 2001; 95: 168-175].

U2OS = experiment: 72-h MTT cytotoxicity assay, U2OS; format: cell-based; details: Homo sapiens, Osteosracoma, read-out: Anti-proliferative activity, 72-h MTT IC50
Method: as §2

HS27 = experiment: 72-h MTT cytotoxicity assay, HS27; format: cell-based; details: Homo sapiens, HS27, Foreskin fibroblasts, read-out: Anti-proliferative activity, 72-h MTT IC50
Method: as §2

A549 = experiment: 72-h MTT cytotoxicity assay, A549; format: cell-based; details: Homo sapiens, A549, Lung carcinoma, read-out: Anti-proliferative activity, 72-h MTT IC50
Method: as §2

WI38 = experiment: 72-h MTT cytotoxicity assay, WI38; format: cell-based; details: Homo sapiens, WI-38, 72 h; WI38, Lung fibroblasts; read-out: Anti-proliferative activity, 72-h MTT IC50
Method: as §2

MCF7 = experiment: 72-h MTT cytotoxicity assay, MCF7; format: cell-based; details: Homo sapiens, MCF7, Breast adenocarcinoma, read-out: Anti-proliferative activity, 72-h MTT IC50
Method: as §2

SKUT-1 = experiment: 72-h MTT cytotoxicity assay, SKUT-1; format: cell-based; details: Homo sapiens, SK-UT-1, 72 h; SKUT-1, Uterus leiomyosarcoma; read-out: Anti-proliferative activity, 72-h MTT IC50
Method: as §2

HCT116 = experiment: 72-h MTT cytotoxicity assay, HCT116; format: cell-based; details: Homo sapiens, HCT-116, 72 h; HCT116, Colon carcinoma; read-out: Anti-proliferative activity, 72-h MTT IC50
Method: as §2

Messa-Dx5 = experiment: 72-h MTT cytotoxicity assay, Messa-Dx5; format: cell-based; details: Homo sapiens, MES-SA/Dx5, 72 h; Messa-Dx5, Uterus sarcoma; read-out: Anti-proliferative activity, 72-h MTT IC50
Method: as §2

HeLa = experiment: 72-h MTT cytotoxicity assay, HeLa; format: cell-based; details: Homo sapiens, Cervical carcinoma, read-out: Anti-proliferative activity, 72-h MTT IC50
Method: as §2

carcinoma cell lines = experiment: 72-h MTT panel, average carcinomas; format: cell-based; details: Homo sapiens, average over carcinoma cell lines, read-out: Anti-proliferative activity, 72-h MTT IC50, Average carcinomas
Method: as §2, §3

HT29 = experiment: 72-h MTT cytotoxicity assay, HT29; format: cell-based; details: Homo sapiens, HT-29, 72 h; HT29, Colon adenocarcinoma; read-out: Anti-proliferative activity, 72-h MTT IC50
Method: as §2

DU145 = experiment: 72-h MTT cytotoxicity assay, DU145; format: cell-based; details: Homo sapiens, DU-145, 72 h; DU145, Prostate carcinoma; read-out: Anti-proliferative activity, 72-h MTT IC50
Method: as §2

Saos-2 = experiment: 72-h MTT cytotoxicity assay, Saos-2; format: cell-based; details: Homo sapiens, Saos-2, Osteosracoma, read-out: Anti-proliferative activity, 72-h MTT IC50
Method: as §2

IMR90 = experiment: 72-h MTT cytotoxicity assay, IMR90; format: cell-based; details: Homo sapiens, IMR-90, 72 h; IMR90, Lung fibroblasts; read-out: Anti-proliferative activity, 72-h MTT IC50
Method: as §2

NaCat = experiment: 72-h MTT cytotoxicity assay, NaCat; format: cell-based; details: Keratinocyte, Human keratinocytes, read-out: Anti-proliferative activity, 72-h MTT IC50
Method: as §2

Messa = experiment: 72-h MTT cytotoxicity assay, Messa; format: cell-based; details: Homo sapiens, MES-SA, Uterus sarcoma, read-out: Anti-proliferative activity, 72-h MTT IC50
Method: as §2

sarcoma cell lines = experiment: 72-h MTT panel, average sarcomas; format: cell-based; details: Homo sapiens, average over sarcoma cell lines, read-out: Anti-proliferative activity, 72-h MTT IC50, Average sarcomas
Method: as §2, §3

[4] = tested on: transformed human cell lines; experiment: 72-h MTT panel, average transformed; format: cell-based; details: average over transformed cell lines, read-out: Anti-proliferative activity, 72-h MTT IC50, Average transformed
Method: as §2, §3

Lovo = experiment: 72-h MTT cytotoxicity assay, Lovo; format: cell-based; details: Homo sapiens, Colon adenocarcinoma, read-out: Anti-proliferative activity, 72-h MTT IC50
Method: as §2

SK-N-MC = experiment: 72-h MTT cytotoxicity assay, SK-N-MC; format: cell-based; details: Homo sapiens, Neuriepithelioma, read-out: Anti-proliferative activity, 72-h MTT IC50
Method: as §2

Nci-H460 = experiment: 72-h MTT cytotoxicity assay, Nci-H460; format: cell-based; details: Homo sapiens, Nci-H460, Large cell lung carcinoma, read-out: Anti-proliferative activity, 72-h MTT IC50
Method: as §2

[5] = fluorescence polarisation assay, Table 3, read-out: In vitro competitive HDM2 binding assay IC50
[6] = fluorescence polarisation format, Table 1, read-out: IC50 In vitro competitive HDM2 binding assay
[7] = NCI-H1299, 72-h MTT, Table 1, read-out: IC50 Anti-proliferative effect on cell line H 1299
[8] = 72-h MTT, Table 1, read-out: IC50 Anti-proliferative effect on cell line AGS

T1 sequence (Q00987 whole entry): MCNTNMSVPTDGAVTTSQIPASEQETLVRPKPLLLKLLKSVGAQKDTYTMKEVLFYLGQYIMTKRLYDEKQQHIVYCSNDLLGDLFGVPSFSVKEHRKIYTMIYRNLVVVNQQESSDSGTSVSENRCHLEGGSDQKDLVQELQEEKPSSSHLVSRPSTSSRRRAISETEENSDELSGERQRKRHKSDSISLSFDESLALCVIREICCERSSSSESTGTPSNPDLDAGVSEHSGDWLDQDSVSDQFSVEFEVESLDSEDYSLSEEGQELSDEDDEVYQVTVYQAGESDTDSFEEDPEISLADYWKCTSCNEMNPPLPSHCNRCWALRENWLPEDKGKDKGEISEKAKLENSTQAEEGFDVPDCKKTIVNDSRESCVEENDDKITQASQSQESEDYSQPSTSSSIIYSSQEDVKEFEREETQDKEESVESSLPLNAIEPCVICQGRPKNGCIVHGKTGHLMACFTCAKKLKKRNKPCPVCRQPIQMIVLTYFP

## CC(Cc1c[nH]c2ccccc12)NS(=O)(=O)c1cc([N+](=O)[O-])c(Cl)s1 (centres unmarked) [Compound 49, 5-Chloro-4-nitrothiophene-2-sulfonic acid [2-(1H-indol-3-yl)-1-methylethyl]amide]
HDM2; [5]
  IC50: 46.3 ± 4 µM
HDM2; [6]
  IC50: 46.3 ± 4 µM
H1299; [7]
  IC50: 1.5 ± 0.4 µM
[1]
  cell rounding: even more rapid cell rounding
[2]
  IC50: 36.3 ± 2.9 µM
SJSA-1; SJSA-1, 72-h MTT, Table 1, read-out: IC50 Anti-proliferative effect on cell line SJSA-1
  IC50: 2 ± 0.2 µM
AGS; [8]
  IC50: 2.2 ± 2.3 µM
p53
  Fold induction of luciferase activity: 117 fold
  Concentration (test compound concentration at which the p53 induction was maximal): 5.5 µM

## CN(c1ccc(F)cc1)S(=O)(=O)c1cc([N+](=O)[O-])c(Cl)s1 [Compound 7]
[3]
  IC50: 44.6 ± 6.9 µM
U2OS
  IC50: 8.8 µM
HS27
  IC50: 39.2 µM
A549
  IC50: 19.3 µM
WI38
  IC50: 52.3 µM
HDM2; [5]
  IC50: 15.4 ± 7.8 µM
HDM2; [6]
  IC50: 15.4 ± 7.8 µM
MCF7
  IC50: 11.2 µM
SKUT-1
  IC50: 6.1 µM
HCT116
  IC50: 12.2 µM
Messa-Dx5
  IC50: 7.6 µM
HeLa
  IC50: 13.7 µM
Carcinoma cell lines
  IC50: 9.7 ± 4.7 µM
H1299; NCI-H1299, 72 h, H1299, Large cell lung carcinoma, Table 2, read-out: Anti-proliferative activity, 72-h MTT IC50
  IC50: 14 µM
H1299; [7]
  IC50: 12.9 ± 0.7 µM
HT29
  IC50: 4.6 µM
DU145
  IC50: 9.1 µM
Saos-2
  IC50: 13.3 µM
IMR90
  IC50: 41.8 µM
NaCat
  IC50: 12.9 µM
Messa
  IC50: 8.1 µM
Sarcoma cell lines
  IC50: 11.3 ± 3.7 µM
[4]
  IC50: 10.2 ± 4.4 µM
Lovo
  IC50: 8.5 µM
SJSA-1; 72 h, SJSA-1, Osteosracoma, Table 2, read-out: Anti-proliferative activity, 72-h MTT IC50
  IC50: 17 µM
SJSA-1; SJSA-1, 72-h MTT, Table 1, read-out: IC50 Anti-proliferative effect on cell line SJSA-4
  IC50: 9.3 ± 2.7 µM
SK-N-MC
  IC50: 3 µM
AGS; [8]
  IC50: 7 ± 1.3 µM
AGS; 72 h, Gastric adenocarcinoma, Table 2, read-out: Anti-proliferative activity, 72-h MTT IC50
  IC50: 5 µM
Nci-H460
  IC50: 9.6 µM
p53
  Fold induction of luciferase activity: 32 fold
  Concentration (test compound concentration at which the p53 induction was maximal): 9 µM

From patent US20050215548A1 (Cyclacel Limited, priority 2002, published 2005)
